Data on two compounds can be found in US20240101538A1, “PROTEIN-PROTEIN INTERACTION MODULATORS OF AURORA KINASE A AND THEIR USE IN THE PREVENTION AND/OR TREATMENT OF CANCER” (EBERHARD KARLS UNIVERSITÄT TÜBINGEN, priority 2020, published 2024).

By IC50 is commonly meant the concentration at which inhibition is half-maximal.

Assay [1] deals with Aurora A (Homo sapiens (Human), UniProt O14965). As to the kind of experiment: ADP-Glo Kinase Assay with Aurora A Kinase Enzyme System. In kind it is biochemical. To be noted: compounds tested from 1 μM. As for the experimental part: To measure the effect of the compounds on the activity of AURKA, the IC50 of the compounds was determined with the ADP-Glo™ Kinase Assay (Promega, V9101) and the Aurora A Kinase Enzyme System (Promega, V1931). The assay was performed according to the manufacturer's instructions in a white 384-well plate format (Corning Assay Plate, LOT 32216024) by using 1.4 ng/μl Aurora A, […] and 0.1 μg/μl myelin basic protein (MBP) substrate in a total volume of 6 μl (transferred with Integra viaflo 96/384 handheld channel pipette). To generate a dose-response curve, a 3-fold serial dilution of the compounds was tested starting from 1 μM. The kinase was pre-incubated for 10 min at RT with the respective compound, before the substrate mix containing MBP and ATP was added. After 60 min at RT, 6 μl of the ADP-Glo reagent were added and incubated for another 60 min at RT. Afterwards 12 μl of the detection reagent were added and incubated for 30 min at RT before the luminescence was measured with an integration time of 500 ms by using a Filter Max F5 multi-mode microplate reader from Molecular Devices. As a negative control, the reaction was performed with MBP, ATP and Aurora A only. […]
Aurora A, sequence (O14965 whole entry): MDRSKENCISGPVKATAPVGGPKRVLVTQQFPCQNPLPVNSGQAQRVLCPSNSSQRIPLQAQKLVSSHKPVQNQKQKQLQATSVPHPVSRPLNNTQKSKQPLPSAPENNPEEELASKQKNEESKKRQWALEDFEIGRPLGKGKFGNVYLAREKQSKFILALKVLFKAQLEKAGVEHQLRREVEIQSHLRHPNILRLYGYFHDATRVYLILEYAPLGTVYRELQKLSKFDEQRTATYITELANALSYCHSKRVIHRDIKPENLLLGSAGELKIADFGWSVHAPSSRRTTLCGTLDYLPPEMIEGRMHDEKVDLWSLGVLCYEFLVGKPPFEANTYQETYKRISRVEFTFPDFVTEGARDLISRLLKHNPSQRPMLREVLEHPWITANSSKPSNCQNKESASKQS
(In general: In ADP-Glo the light output rises with the ADP produced.)

The target of assay [2] is MYC-AURKA interaction (Mus musculus (Mouse), UniProt P97477). Description: Proximity ligation assay (PLA) for MYC and AURKA in NMP53^−/− cells. It counts as cell-based, murine. The settings on record: 2 h after treatment. As to the method: To examine whether this MYC degradation is associated with MYC-AURKA PPI disruption, the inventors performed proximity ligation assays (PLA) in NMP53^−/− cells. For Proximity Ligation Assay (PLA), 50 000 cells were seeded on 12 mm glass slides placed in 6 well plates. On the next day, the cells were treated with the indicated compounds or the corresponding DMSO concentration for 2 h (compound 2c [N-(5-((4-(1H-pyrazole-4-yl)benzyl)amino)-2-fluorophenyl)-3-(furan-2-yl)propanamide] and compound 3a [N-(2-fluoro-5-((4-(1-methyl-1H-pyrazole-4-yl)benzyl)amino)phenyl)-3-(furan-2-yl)propanamide]) or 24 h (alisertib) and fixed for 10 min in 100% MeOH at −20° C. The glass slides were removed from the 6 well plates and the cells permeabilized with TBS+0.3% Triton X-100 for 5 min. After washing with PBS and blocking with 5% BSA in TBS+0.05% Tween for 30 min, the slides were incubated with MYC (Abeam ab32072, 1:200) and AURKA (Abcam ab13824, 1:200) specific antibodies in 1% BSA in TBS+0.05% Tween for 120 min at RT and washed 3 times with PBS for 5 min, wherein the MYC/TPX2 and AURKA specific antibodies are derived from a different species. After a 20 min pre-incubation of two PLA probes, directed against either species of the MYC/TPX2 and AURKA specific antibodies, at RT (DUO92001 and DUO92005 Sigma Aldrich, diluted 1:10 in 1% BSA in TBS+0.05% Tween), the slides were incubated with the probes for 60 min at 37° C. in a humidified chamber. The slides were washed 3 times with 1× wash buffer A (Sigma Aldrich DUO82049) for 5 min and incubated with the ligase solution (ligase diluted 1:40 in 5× ligase buffer and ddH2O, Sigma Aldrich DUO92008) for 60 min at 37° C. in a humidified chamber. […] The foci per cell were counted in a way that the cytoplasmic foci are counted to the cell with the closest nucleus (DAPI). Significance was calculated with the GraphPad Prism 8.4.0 software (GraphPad Software, La Jolla, CA) by using the nonparametric Mann Whitney test.
MYC-AURKA interaction, sequence (P97477 whole entry): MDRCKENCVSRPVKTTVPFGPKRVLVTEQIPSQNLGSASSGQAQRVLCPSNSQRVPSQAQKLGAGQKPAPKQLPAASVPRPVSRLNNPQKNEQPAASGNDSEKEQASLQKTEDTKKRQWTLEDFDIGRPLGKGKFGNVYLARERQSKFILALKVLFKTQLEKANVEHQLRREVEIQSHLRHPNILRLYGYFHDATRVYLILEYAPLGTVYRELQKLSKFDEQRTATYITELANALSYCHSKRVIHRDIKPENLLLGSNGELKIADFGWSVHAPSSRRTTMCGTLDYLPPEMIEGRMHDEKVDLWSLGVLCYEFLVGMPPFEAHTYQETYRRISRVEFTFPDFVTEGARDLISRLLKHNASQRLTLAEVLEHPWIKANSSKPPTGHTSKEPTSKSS

Assay [3] relates to MYC. As to the kind of experiment: Western blot analysis of cellular MYC levels in NMP53^−/− cells. It counts as cell-based, murine. To be noted: 8 h after treatment with increasing concentrations. As for the experimental part:
A. Western blot analysis of MYC and AURKA in tumor cells (NMP53/cells) 8 h after treatment with increasing concentrations of compound 2c [N-(5-((4-(1H-pyrazole-4-yl)benzyl)amino)-2-fluorophenyl)-3-(furan-2-yl)propanamide]. Vinculin served as loading control (n=2) B. Western blot analysis of MYC and AURKA in tumor cells (NMP53^−/− cells) 8 h after treatment with increasing concentrations of compound 3a [N-(2-fluoro-5-((4-(1-methyl-1H-pyrazole-4-yl)benzyl)amino)phenyl)-3-(furan-2-yl)propanamide]. Vinculin served as loading control (n=2). […]
For western blot analysis, 2×10^6 cells were seeded per 10 cm dish and next day treated with the indicated compound concentrations. […] After addition of 4× Laemmli buffer (200 mM Tris-HCl pH 6.8, 8% SDS, 4% (3-mercaptoethanol, 40% glycerol, 0.33% bromophenol blue) the lysates were boiled for 5 min at 95° C. For western blot analysis, proteins were separated by SDS-polyacrylamide electrophoresis (using 25 μg of each sample) and transferred onto PVDF Immobilon-P membranes (Millipore). The blots were incubated with antibodies specific to MYC (Abeam ab32072, 1:1 000), AURKA (Abeam ab13824, 1:1 000) and Vinculin (Sigma Aldrich V9131-2 mL 1:10 000), followed by peroxidase-conjugated secondary antibodies. Proteins were detected by ChemiDoc MP Imaging System (Bio-Rad) using Clarity Western ECL Substrate (Bio-Rad).

Turning to `O=C(CCc1ccco1)Nc1cc(NCc2ccc(-c3cn[nH]c3)cc2)ccc1F` [Compound 2c, N-(5-((4-(1H-pyrazole-4-yl)benzyl)amino)-2-fluorophenyl)-3-(furan-2-yl)propanamide], in assay [1] (read-out: IC50 (AURKA)), the IC50 was 259 nM. In assay [2], the “reduction of the MYC-AURKA interaction compared to DMSO” value was determined as 66.7%. Also, in assay [3], the MYC levels result is given as “reduced in a concentration dependent manner”.

Take `Cn1cc(-c2ccc(CNc3ccc(F)c(NC(=O)CCc4ccco4)c3)cc2)cn1` [Compound 3a, N-(2-fluoro-5-((4-(1-methyl-1H-pyrazole-4-yl)benzyl)amino)phenyl)-3-(furan-2-yl)propanamide]: in assay [1], the “IC50 (AURKA)” value was “no kinase inhibition”. Moreover, the “reduction of the MYC-AURKA interaction compared to DMSO” value in assay [2] amounted to 50%. The MYC levels result in assay [3] is on record as “reduced in a concentration dependent manner”.
